Assay results as given in ChEMBL document CHEMBL1201862, “PubChem BioAssay data set” (2004).
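Exposure lasted 48 hours, with cells grown in 96-well plates and compounds tested at five concentrations. At the GI50, growth is halved.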 Activity calls are given as the source filed them. Cut-off read from the data, not from the text of the source: active = GI50 up to about 1.1 µM and inactive = higher.

What was measured:
Assay in all cases: NCI tumour cell line growth inhibition, 48 h
KM12 = test system: KM12
SF-268 = test system: SF-268
DU-145 = test system: DU-145
HT-29 = test system: HT-29
NCI-H522 = test system: NCI-H522
OVCAR-4 = test system: OVCAR-4
LOX IMVI = test system: LOX IMVI
EKVX = test system: EKVX
A549 = test system: A549
RXF 393 = test system: RXF 393
UACC-62 = test system: UACC-62
UO-31 = test system: UO-31
MDA-N = test system: MDA-N
SNB-19 = test system: SNB-19
MCF7 = test system: MCF7
OVCAR-3 = test system: OVCAR-3
MOLT-4 = test system: MOLT-4
BT-549 = test system: BT-549
Malme-3M = test system: Malme-3M
MDA-MB-435 = test system: MDA-MB-435
NCI-H226 = test system: NCI-H226
Hs-578T = test system: Hs-578T
NCI-H23 = test system: NCI-H23
HCC 2998 = test system: HCC 2998
HCT-15 = test system: HCT-15
SK-MEL-28 = test system: SK-MEL-28
T47D = test system: T47D
SW-620 = test system: SW-620
ACHN = test system: ACHN
K562 = test system: K562
NCI-H460 = test system: NCI-H460
M14 = test system: M14
UACC-257 = test system: UACC-257
SK-OV-3 = test system: SK-OV-3
SK-MEL-5 = test system: SK-MEL-5
A498 = test system: A498
OVCAR-5 = test system: OVCAR-5
SK-MEL-2 = test system: SK-MEL-2
RPMI-8226 = test system: RPMI-8226
786-0 = test system: 786-0
SF-295 = test system: SF-295
HCT-116 = test system: HCT-116
SR = test system: SR
OVCAR-8 = test system: OVCAR-8
HL-60 = test system: HL-60
CAKI-1 = test system: CAKI-1
SNB-75 = test system: SNB-75
PC-3 = test system: PC-3
TK-10 = test system: TK-10
IGROV-1 = test system: IGROV-1
NCI/ADR-RES = test system: NCI/ADR-RES
HOP-92 = test system: HOP-92
SN12C = test system: SN12C
HOP-62 = test system: HOP-62
SF-539 = test system: SF-539
MDA-MB-231 = test system: MDA-MB-231
U-251 = test system: U-251
COLO 205 = test system: COLO 205
CCRF-CEM = test system: CCRF-CEM

For `Cc1c2cccc-2c(OCCOC(=O)n2ccnc2)cc2c1[nH]c1ccccc12`, the GI50 (KM12) was 2.14 µM (inactive), the GI50 (SF-268) was 2.6 µM (inactive) and the GI50 (DU-145) was 6.24 µM (inactive). For the same compound, the GI50 (HT-29) was 2.27 µM (inactive), the GI50 (NCI-H522) was 2.14 µM (inactive) and the GI50 (OVCAR-4) was 2.32 µM (inactive). For the same compound, the GI50 (LOX IMVI) was 1.89 µM (inactive), the GI50 (EKVX) was 1.04 µM (active) and the GI50 (A549) was 3.42 µM (inactive). The GI50 (RXF 393) was 2.57 µM (inactive), the GI50 (UACC-62) was 2.62 µM (inactive) and the GI50 (UO-31) was 1.84 µM (inactive). For the same compound, the GI50 (MDA-N) was 4.8 µM (inactive), the GI50 (SNB-19) was 2.65 µM (inactive) and the GI50 (MCF7) was 3.24 µM (inactive). The GI50 (OVCAR-3) was 1.89 µM (inactive), the GI50 (MOLT-4) was 4.12 µM (inactive) and the GI50 (BT-549) was 2.89 µM (inactive). The GI50 (Malme-3M) was 2.79 µM (inactive), the GI50 (MDA-MB-435) was 3.12 µM (inactive) and the GI50 (NCI-H226) was 2.39 µM (inactive). For the same compound, the GI50 (Hs-578T) was 3.55 µM (inactive), the GI50 (NCI-H23) was 2.44 µM (inactive) and the GI50 (HCC 2998) was 2.82 µM (inactive). The GI50 (HCT-15) was 2.2 µM, the GI50 (SK-MEL-28) was 2.02 µM (inactive) and the GI50 (T47D) was 2.49 µM (inactive). For the same compound, the GI50 (SW-620) was 3.08 µM (inactive), the GI50 (ACHN) was 2.56 µM (inactive) and the GI50 (K562) was 4.01 µM (inactive). For the same compound, the GI50 (NCI-H460) was 3.9 µM (inactive), the GI50 (M14) was 3.46 µM (inactive) and the GI50 (UACC-257) was 2.73 µM (inactive). The GI50 (SK-OV-3) was 4.74 µM (inactive), the GI50 (SK-MEL-5) was 2.42 µM (inactive) and the GI50 (A498) was 6.52 µM (inactive). For the same compound, the GI50 (OVCAR-5) was 2.55 µM (inactive), the GI50 (SK-MEL-2) was 1.98 µM (inactive) and the GI50 (RPMI-8226) was 3.48 µM (inactive). The GI50 (786-0) was 3.87 µM (inactive), the GI50 (SF-295) was 2.96 µM (inactive) and the GI50 (HCT-116) was 3.33 µM (inactive). For the same compound, the GI50 (SR) was 3.31 µM (inactive), the GI50 (OVCAR-8) was 2.18 µM (inactive) and the GI50 (HL-60) was 2.12 µM (inactive). For the same compound, the GI50 (CAKI-1) was 3.66 µM (inactive), the GI50 (SNB-75) was 1.04 µM (active) and the GI50 (PC-3) was 1.75 µM (inactive). For the same compound, the GI50 (TK-10) was 3.85 µM (inactive), the GI50 (IGROV-1) was 1.77 µM (inactive) and the GI50 (NCI/ADR-RES) was 2.82 µM (inactive). The GI50 (HOP-92) was 1.7 µM (inactive), the GI50 (SN12C) was 2.58 µM (inactive) and the GI50 (HOP-62) was 5.48 µM (inactive).

In the case of `O=c1oc2ccccc2cc1-c1nc2ccccc2s1`, the GI50 (KM12) is reported as 6.89 µM (inactive), the GI50 (SF-268) is reported as 8.73 µM (inactive) and the GI50 (DU-145) is reported as 14.2 µM (inactive). For the same compound, the GI50 (HT-29) was 11.2 µM (inactive), the GI50 (NCI-H522) was 6.47 µM (inactive) and the GI50 (OVCAR-4) was 11.6 µM (inactive). The GI50 (LOX IMVI) was 10.1 µM (inactive), the GI50 (EKVX) was 11.5 µM (inactive) and the GI50 (A549) was 4.94 µM (inactive). The GI50 (SF-539) was 2.89 µM (inactive), the GI50 (RXF 393) was 11.3 µM (inactive) and the GI50 (UACC-62) was 14.6 µM (inactive). For the same compound, the GI50 (UO-31) was 5.83 µM (inactive), the GI50 (MDA-N) was 15.2 µM (inactive) and the GI50 (MDA-MB-231) was 12 µM (inactive). The GI50 (OVCAR-3) was 6.4 µM (inactive), the GI50 (BT-549) was 17.2 µM (inactive) and the GI50 (Malme-3M) was 2.2 µM (inactive). For the same compound, the GI50 (MDA-MB-435) was 5.36 µM (inactive), the GI50 (NCI-H226) was 14.6 µM (inactive) and the GI50 (Hs-578T) was 6.55 µM (inactive). For the same compound, the GI50 (NCI-H23) was 15.6 µM (inactive), the GI50 (HCC 2998) was 37.2 µM (inactive) and the GI50 (HCT-15) was 29.6 µM. The GI50 (SK-MEL-28) was 21.2 µM (inactive), the GI50 (U-251) was 7.35 µM (inactive) and the GI50 (T47D) was 10.7 µM (inactive). The GI50 (SW-620) was 14.3 µM (inactive), the GI50 (ACHN) was 3.51 µM (inactive) and the GI50 (K562) was 3.61 µM (inactive). The GI50 (NCI-H460) was 7.45 µM (inactive), the GI50 (M14) was 16.5 µM (inactive) and the GI50 (UACC-257) was 28.1 µM (inactive). For the same compound, the GI50 (SK-OV-3) was 10.1 µM (inactive), the GI50 (SK-MEL-5) was 19 µM (inactive) and the GI50 (A498) was 13.4 µM (inactive). For the same compound, the GI50 (OVCAR-5) was 23.3 µM (inactive), the GI50 (RPMI-8226) was 2.79 µM (inactive) and the GI50 (786-0) was 4.58 µM (inactive). For the same compound, the GI50 (SF-295) was 8.57 µM (inactive), the GI50 (HCT-116) was 5.08 µM (inactive) and the GI50 (SR) was 0.491 µM (active). The GI50 (OVCAR-8) was 7.74 µM (inactive), the GI50 (HL-60) was > 100 µM (inactive) and the GI50 (CAKI-1) was 4.92 µM (inactive). The GI50 (SNB-75) was 6.3 µM (inactive), the GI50 (PC-3) was 17.2 µM (inactive) and the GI50 (COLO 205) was 23.2 µM (inactive). The GI50 (TK-10) was 12.6 µM (inactive), the GI50 (IGROV-1) was 3.33 µM (inactive) and the GI50 (NCI/ADR-RES) was 10 µM (inactive). For the same compound, the GI50 (HOP-92) was 6.65 µM (inactive) and the GI50 (HOP-62) was 6.14 µM (inactive).

In the case of `CC(C)=CC1C(COC(=O)c2ccccc2Cl)C1(C)C` (centres undefined), the GI50 (KM12) is reported as 30.4 µM (inactive), the GI50 (SF-268) is reported as 27.5 µM (inactive) and the GI50 (DU-145) is reported as 32.8 µM (inactive). The GI50 (CCRF-CEM) was 56.8 µM (inactive), the GI50 (HT-29) was 29.6 µM (inactive) and the GI50 (NCI-H522) was 20.4 µM (inactive). The GI50 (OVCAR-4) was 42.2 µM (inactive), the GI50 (LOX IMVI) was 20.2 µM (inactive) and the GI50 (EKVX) was 25.8 µM (inactive). For the same compound, the GI50 (A549) was 36.9 µM (inactive), the GI50 (RXF 393) was 24.9 µM (inactive) and the GI50 (UACC-62) was > 100 µM (inactive). For the same compound, the GI50 (UO-31) was 78.5 µM (inactive), the GI50 (MDA-N) was 29.6 µM (inactive) and the GI50 (SNB-19) was > 100 µM (inactive). For the same compound, the GI50 (MDA-MB-231) was 49.7 µM (inactive), the GI50 (OVCAR-3) was 26.1 µM (inactive) and the GI50 (MOLT-4) was 24.3 µM (inactive). For the same compound, the GI50 (BT-549) was 33.5 µM (inactive), the GI50 (Malme-3M) was 23 µM (inactive) and the GI50 (MDA-MB-435) was 85.1 µM (inactive). For the same compound, the GI50 (NCI-H226) was 30.4 µM (inactive), the GI50 (Hs-578T) was 19 µM (inactive) and the GI50 (NCI-H23) was 31.8 µM (inactive). For the same compound, the GI50 (HCT-15) was 25.6 µM, the GI50 (SK-MEL-28) was > 100 µM (inactive) and the GI50 (U-251) was 30.1 µM (inactive). For the same compound, the GI50 (T47D) was 50.6 µM (inactive), the GI50 (SW-620) was 51.3 µM (inactive) and the GI50 (ACHN) was 42.8 µM (inactive). For the same compound, the GI50 (K562) was 34 µM (inactive), the GI50 (NCI-H460) was 35.7 µM (inactive) and the GI50 (M14) was 75 µM (inactive). The GI50 (UACC-257) was 48.9 µM (inactive), the GI50 (SK-MEL-5) was 24 µM (inactive) and the GI50 (A498) was > 100 µM (inactive). The GI50 (OVCAR-5) was 38.3 µM (inactive), the GI50 (SK-MEL-2) was 46.7 µM (inactive) and the GI50 (786-0) was 33.2 µM (inactive). For the same compound, the GI50 (SF-295) was 35.5 µM (inactive), the GI50 (HCT-116) was 49.3 µM (inactive) and the GI50 (SR) was 42.2 µM (inactive). For the same compound, the GI50 (OVCAR-8) was 53.1 µM (inactive), the GI50 (HL-60) was 24.1 µM (inactive) and the GI50 (CAKI-1) was 41.6 µM (inactive). For the same compound, the GI50 (PC-3) was 41.3 µM (inactive), the GI50 (TK-10) was > 100 µM (inactive) and the GI50 (IGROV-1) was 23.5 µM (inactive). The GI50 (NCI/ADR-RES) was 41.2 µM (inactive), the GI50 (HOP-92) was 28.4 µM (inactive) and the GI50 (SN12C) was 32.6 µM (inactive). The GI50 (HOP-62) was 38.4 µM (inactive).
